Experimental data reported in PubChem BioAssay (NCI).
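A five-concentration, 48-hour dose response in 96-well plates underlies each endpoint, interpolated linearly between surrounding concentrations. TGI denotes the concentration required for complete inhibition of growth.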

Experiments:
Assay in all cases: NCI tumour cell line growth inhibition, 48 h
HOP-92 NSCLC = system: HOP-92 NSCLC
SK-MEL-2 melanoma = system: SK-MEL-2 melanoma
HS 578T breast = system: HS 578T breast
PC-3 prostate = system: PC-3 prostate
786-0 renal = system: 786-0 renal
SK-MEL-5 melanoma = system: SK-MEL-5 melanoma
A498 renal = system: A498 renal
RPMI-8226 leukemia = system: RPMI-8226 leukemia
TK-10 renal = system: TK-10 renal
OVCAR-4 ovarian = system: OVCAR-4 ovarian

Structure (SMILES) | TGI (HOP-92 NSCLC) [µM] | TGI (SK-MEL-2 melanoma) [µM] | TGI (HS 578T breast) [µM] | TGI (PC-3 prostate) [µM] | TGI (786-0 renal) [µM] | TGI (SK-MEL-5 melanoma) [µM] | TGI (A498 renal) [µM] | TGI (RPMI-8226 leukemia) [µM] | TGI (TK-10 renal) [µM] | TGI (OVCAR-4 ovarian) [µM]
COC(=O)c1ccc(C=Nc2ccc(S(N)(=O)=O)cc2)cc1 | > 100 | > 100 | > 100 | > 100 | > 100 | > 100 | > 100 | 86.2 | > 100 | > 100
CN(C)S(=O)(=O)Nc1nnc(S(N)(=O)=O)s1 | > 100 | > 100 | > 100 | > 100 | > 100 | > 100 | > 100 | > 100 | > 100 | > 100
CC(=S)N=Cc1c(O)cc(C)oc1=O | > 100 | > 100 | > 100 | > 100 | > 100 | > 100 | > 100 | > 100 | > 100 | > 100
O=C(CSc1n[nH]c(=O)[nH]c1=O)NNC(=O)c1cccc2nc3ccccc3nc12 | > 100 | > 100 | > 100 | > 100 | > 100 | 45 | > 100 | > 100 | > 100 | > 100
Brc1ccc2c(-c3csc(-c4c[nH]c5cc(Br)ccc45)n3)c[nH]c2c1 | > 100 | > 100 | 87.1 | > 79.5 | > 67.3 | > 100 | > 83.5 | > 100 | > 100 | 97.7
CC1(C(=O)O)CCCC1C(=O)O (stereo not given) | > 100 | > 100 | > 100 | > 100 | > 100 | > 100 | > 100 | > 100 | > 100 | > 100
NC(N)=NS(=O)(=O)c1ccc(NC(=O)c2ccc3nc4ccccc4c(Nc4ccc(S(=O)(=O)N=C(N)N)cc4)c3c2)cc1 | > 100 | > 100 | > 100 | > 100 | > 100 | > 100 | > 100 | > 100 | > 100 | > 100
CC1S/C(=N/c2nnc(-c3ccccc3)o2)NC1=O (stereo not given) | > 100 | > 100 | > 100 | > 100 | 85.4 | > 100 | > 100 | > 100 | > 100 | > 100
CC(=O)OC/C=C(/C=C/CNC1CCCCC1)OC(C)=O | 25.5 | 43.8 | 80.7 | 31.1 | 23.9 | 33.5 | 33.9 | 25.5 | 30.6 | 35.7
C=C1C(=O)O[C@@]23C1CC[C@@H](C)C2CC[C@@]1(C)OC31 (stereo not given in full) | 24.2 | 23.9 | 46.5 | 18.7 | 26.6 | 12.3 | 59.1 | 16.8 | 16.8 | 25.3
Cc1c2ncccc2cc2oc3ccccc3c(=O)c12 | 92.7 | > 100 | > 100 | > 100 | > 100 | > 100 | > 100 | > 100 | > 100 | > 100
CC1CC(=O)Nc2nc3ccccc3n21 (stereo not given) | > 100 | > 100 | > 100 | > 100 | > 100 | > 100 | > 100 | > 100 | > 100 | > 100
O=C1CSC(c2cccs2)N1c1nc2cc3sc(N4C(=O)CSC4c4cccs4)nc3cc2s1 (stereo not given) | > 50 | > 50 | > 50 | > 50 | > 50 | > 50 | > 50 | > 50 | > 50 | > 50
COc1cc(CN2CCCCC2)cc2cc(C(=O)O)c(=O)oc12 | > 100 | > 100 | > 100 | > 100 | > 100 | > 100 | > 100 | > 100 | > 100 | > 100
